Experiments:
Type in all cases: in vivo
[1] = system: bermudagrass (Cynodon dactylon); test: Test B pre-/postemergence plant response
How it was run: (§1)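 Each species received compound formulated in non-phytotoxic solvent with surfactant, either at planting into a loam and sand blend or as a foliar spray once plants reached 2 to 18 cm in peat-based medium. Plants stayed in the greenhouse 13 to 15 days before visual evaluation against controls, scored 0 (no effect) to 100 (complete control).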

[2] = system: cocklebur (Xanthium strumarium); test: Test B pre-/postemergence plant response
How it was run: as §1

[3] = system: goosegrass (Eleusine indica); test: Test B pre-/postemergence plant response
How it was run: as §1

[4] = system: green foxtail (Setaria viridis); test: Test B pre-/postemergence plant response
How it was run: as §1

[5] = system: lambsquarters (Chenopodium album); test: Test B pre-/postemergence plant response
How it was run: as §1

[6] = system: large crabgrass (Digitaria sanguinalis); test: Test B pre-/postemergence plant response
How it was run: as §1

[7] = system: morningglory (Ipomoea coccinea); test: Test B pre-/postemergence plant response
How it was run: as §1

[8] = system: wheat (Triticum aestivum); test: Test B pre-/postemergence plant response
How it was run: as §1

[9] = system: wild oat (Avena fatua); test: Test B pre-/postemergence plant response
How it was run: as §1

[10] = system: yellow nutsedge (Cyperus esculentus); test: Test B pre-/postemergence plant response
How it was run: as §1

[11] = system: barnyardgrass (Echinochloa crus-galli); test: Test B flooded paddy test; details: for Plant response rating, Flood, Barnyardgrass: 250 g ai/ha, flooded paddy test, visual rating on 0 to 100 scale (0 no effect, 100 complete control) after 13 to 15 days; for Plant response rating, Barnyardgrass: Flood (flooded paddy test), 13 to 15 days
How it was run: (§2)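 Each compound is added to standing floodwater (3 cm above soil, maintained) in pots of 2-leaf-stage plants; greenhouse exposure lasts 13–15 d before visual comparison with controls on a 0–100 control scale.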

[12] = system: umbrella sedge (Cyperus difformis); test: Test B flooded paddy test; details: for Plant response rating, Flood, Sedge, Umbrella: 250 g ai/ha, flooded paddy test, visual rating on 0 to 100 scale (0 no effect, 100 complete control) after 13 to 15 days; for Plant response rating, Sedge, Umbrella: Flood (flooded paddy test), 13 to 15 days
How it was run: as §2

[13] = 250 g ai/ha, Preemergence, 0 to 100 scale
[14] = Postemergence, 31 g ai/ha, scale 0 to 100 (0 no effect, 100 complete control)
[15] = Postemergence, 62 g ai/ha, scale 0 (no effect) to 100 (complete control), 13 to 15 days
[16] = Postemergence, 125 g ai/ha, visual rating after 13 to 15 days, scale 0 (no effect) to 100 (complete control)
[17] = Postemergence, 250 g ai/ha, scale 0 to 100
[18] = Preemergence, 31 g ai/ha, scale 0 to 100 (0 no effect, 100 complete control)
[19] = Preemergence, 62 g ai/ha, scale 0 to 100 (0 no effect, 100 complete control)
[20] = Preemergence, 125 g ai/ha, 0 to 100 scale
[21] = 62 g ai/ha, scale of 0 to 100 where 0 is no effect and 100 is complete control
[22] = Postemergence, 31 g ai/ha, 0 to 100 scale (0 no effect, 100 complete control)
[23] = Postemergence, 62 g ai/ha, scale 0 to 100 (0 no effect, 100 complete control)
[24] = Postemergence, 125 g ai/ha, scale 0 to 100 (0 no effect, 100 complete control)
[25] = Postemergence, 250 g ai/ha, scale 0 to 100 (0 no effect, 100 complete control), 13 to 15 days
[26] = 125 g ai/ha, scale 0 to 100, 0 is no effect, 100 is complete control
[27] = Flood, 31 g ai/ha, scale 0 to 100 (0 no effect, 100 complete control)

Cc1cccc(Cl)c1-n1c(-c2ccccc2)ncc(C(=O)C2=C(O)CCCC2=O)c1=O [Compound 46]
20: Plant response rating, Oat, Wild [9, 16]
45: Plant response rating, Foxtail, Green [4, 14] | Plant response rating, Crabgrass, Large [6, 18] | Plant response rating, Morningglory [7, 16] | Plant response rating, Sedge, Umbrella [12, 21]
65: Plant response rating, Crabgrass, Large [6, 15] | Plant response rating, Flood, Sedge, Umbrella [12]
70: Plant response rating, Nutsedge, Yellow [10, 15] | Plant response rating, Nutsedge, Yellow [10, 16]
100: Plant response rating, Lambsquarters [5, 13]
10: Plant response rating, Foxtail, Green [4, 13]
90: Plant response rating, Bermudagrass [1, 16] | Bermudagrass plant response rating [1, 17] | Cocklebur plant response rating [2, 17] | Plant response rating, Lambsquarters [5, 16] | Plant response rating, Lambsquarters [5, 18] | Plant response rating, Lambsquarters [5, 19] | Plant response rating, Nutsedge, Yellow [10, 13]
30: Plant response rating, Morningglory [7, 15]
85: Plant response rating, Bermudagrass [1, 15] | Plant response rating, Goosegrass [3, 18] | Plant response rating, Foxtail, Green [4, 16] | Foxtail, Green plant response rating [4, 17] | Plant response rating, Lambsquarters [5, 15] | Crabgrass, Large plant response rating [6, 20]
75: Plant response rating, Cocklebur [2, 14] | Plant response rating, Goosegrass [3, 15] | Plant response rating, Crabgrass, Large [6, 16] | Crabgrass, Large plant response rating [6, 17] | Plant response rating, Crabgrass, Large [6, 19]
25: Plant response rating, Nutsedge, Yellow [10, 18]
95: Lambsquarters plant response rating [5, 17] | Lambsquarters plant response rating [5, 20]
98: Plant response rating, Bermudagrass [1, 13] | Plant response rating, Goosegrass [3, 13] | Goosegrass plant response rating [3, 20] | Plant response rating, Crabgrass, Large [6, 13]
15: Plant response rating, Cocklebur [2, 13]
60: Plant response rating, Foxtail, Green [4, 15] | Plant response rating, Crabgrass, Large [6, 14]
80: Plant response rating, Bermudagrass [1, 14] | Plant response rating, Cocklebur [2, 15] | Plant response rating, Cocklebur [2, 16] | Plant response rating, Goosegrass [3, 16] | Goosegrass plant response rating [3, 17] | Nutsedge, Yellow plant response rating [10, 20]
0: Plant response rating, Bermudagrass [1, 18] | Plant response rating, Cocklebur [2, 18] | Plant response rating, Cocklebur [2, 19] | Cocklebur plant response rating [2, 20] | Plant response rating, Foxtail, Green [4, 18] | Plant response rating, Foxtail, Green [4, 19] | Plant response rating, Morningglory [7, 13] | Plant response rating, Morningglory [7, 18] | Plant response rating, Morningglory [7, 19] | Morningglory plant response rating [7, 20] | Plant response rating, Wheat [8, 13] | Plant response rating, Wheat [8, 15] | Plant response rating, Wheat [8, 16] | Plant response rating, Wheat [8, 18] | Wheat plant response rating [8, 20] | Plant response rating, Oat, Wild [9, 13] | Plant response rating, Oat, Wild [9, 18] | Oat, Wild plant response rating [9, 20] | Plant response rating, Flood, Barnyardgrass [11] | Plant response rating, Barnyardgrass [11, 21]
5: Foxtail, Green plant response rating [4, 20] | Plant response rating, Oat, Wild [9, 15]

O=C(C1=C(O)C2CCC(C2)C1=O)c1cnc(-c2ccsc2)n(CC2CCCO2)c1=O (stereo not drawn) [Compound 229]
5: Plant response rating, Oat, Wild [9, 23]
95: Plant response rating, Foxtail, Green [4, 25] | Plant response rating, Lambsquarters [5, 23] | Plant response rating, Lambsquarters [5, 24]
50: Plant response rating, Sedge, Umbrella [12, 26]
75: Plant response rating, Bermudagrass [1, 22]
40: Plant response rating, Foxtail, Green [4, 22] | Plant response rating, Nutsedge, Yellow [10, 24]
100: Plant response rating, Cocklebur [2, 24] | Plant response rating, Cocklebur [2, 25] | Plant response rating, Morningglory [7, 23] | Plant response rating, Morningglory [7, 24] | Plant response rating, Morningglory [7, 25]
70: Plant response rating, Goosegrass [3, 22] | Plant response rating, Goosegrass [3, 23] | Plant response rating, Goosegrass [3, 24] | Plant response rating, Flood, Sedge, Umbrella [12]
90: Plant response rating, Bermudagrass [1, 25] | Plant response rating, Cocklebur [2, 23] | Plant response rating, Crabgrass, Large [6, 23] | Plant response rating, Crabgrass, Large [6, 24] | Plant response rating, Crabgrass, Large [6, 25]
80: Plant response rating, Bermudagrass [1, 23] | Plant response rating, Goosegrass [3, 25] | Plant response rating, Foxtail, Green [4, 23] | Plant response rating, Foxtail, Green [4, 24] | Plant response rating, Crabgrass, Large [6, 22]
98: Plant response rating, Lambsquarters [5, 25] | Plant response rating, Morningglory [7, 22]
85: Plant response rating, Bermudagrass [1, 24] | Plant response rating, Cocklebur [2, 22] | Plant response rating, Lambsquarters [5, 22]
30: Plant response rating, Flood, Barnyardgrass [11]
55: Plant response rating, Nutsedge, Yellow [10, 25]
20: Plant response rating, Nutsedge, Yellow [10, 23]
35: Plant response rating, Wheat [8, 25] | Plant response rating, Oat, Wild [9, 25]
0: Plant response rating, Wheat [8, 22] | Plant response rating, Wheat [8, 23] | Plant response rating, Oat, Wild [9, 22] | Plant response rating, Nutsedge, Yellow [10, 22] | Plant response rating, Barnyardgrass [11, 21] | Plant response rating, Barnyardgrass [11, 26] | Barnyardgrass plant response rating [11, 27] | Plant response rating, Sedge, Umbrella [12, 21] | Sedge, Umbrella plant response rating [12, 27]

— patent US8952024B2, “Herbicidal pyrimidone derivatives” (E I du Pont de Nemours and Company, priority 2009, dated 2015)
